Measured values published in patent publication US20250101338A1, “BIOMASS DERIVED SURFACE-ACTIVE COMPOSITIONS AND PRODUCTS” (Cambridge Glycoscience Ltd, priority 2021, published 2025).

Assays:
[1] = Relative viscosity, gravity flow time (Example 74); format: physicochemical; details: 10 mL of 10 wt % sodium dodecyl sulfate + 0.3 g NaCl + 0.655 mL of 30 wt % test solution, 27° C., triplicate
Protocol: The time taken for precisely 3 mL of testing mixture to pass out of the […] by gravity was recorded. The test was repeated in triplicate. Averaged results are depicted in FIG. 20 and table 9. It was unexpected that example 11 composition recorded such high viscosity over example 14 composition, which differs by a slightly smaller alkyl chain (octyl instead of decyl).

[2] = Lipophilic substances solubilization test, preservative P12 (Example 72); format: physicochemical; details: 2 mL of 5 wt % aqueous solution, stepwise addition of 10 μL, duplicate
Protocol: After each addition, the sample was agitated with a vortex mixture for 60 s and left to stand for 5 min. If no heterogenous phase was observed visually, the oil was said to be fully soluble. If a heterogenous phase or emulsion was visible, then the saturation limit for that surface-active component was said to have been exceeded. Each surface-active composition was tested in duplicate.

Zein = Zein solubilization test, irritation potential (Example 68); details: 25 mg zein in 1 mL of 1 wt % active surfactant solution, 30 min, BCA assay, triplicate
Protocol: Zein is a water-insoluble corn protein, structurally similar to keratin. The ability of a surfactant to solubilize zein is related to irritation potential. The more zein solubilized, the more irritating the product is deemed to be, according to this test. […] The solutions were centrifuged, and the protein concentration in the supernatant determined by BCA assay. Each surfactant was tested in triplicate. Protein content was determined from a bovine serum albumin (BSA) standard curve.

[3] = Water in oil emulsion stability test (Example 65); format: physicochemical; details: 0.5 mL water with 2 wt % substance + 1.5 mL sunflower oil, vortex 30 s, visual inspection
Protocol: 0.5 mL deionized water containing 2 wt % of the stated inventive or comparative compound was added to 1.5 mL commercial, food-grade sunflower oil, in a sample vial. The vials were each agitated with a IKA Vortex mixture for 30 seconds. The vials were left to stand and inspected visually for emulsion quality after 5 minutes, 1 hour, 4 hours and finally 24 h (FIG. 14 and FIG. 15). […] The results also show an unexpected increase in emulsifying performance for the inventive compositions comprising oligosaccharide mixture-derived surface-active agents (such as example 4-6 compositions) compared with those derived from a single monomeric sugar (xylose) alone (such as example 12 and 13 compositions).

[4] = Flash foam generation test (Example 70); format: physicochemical; details: 20 mg in 4 mL deionized water (10 wt % [sic]), 2 mL shaken 30 s in 15 mL tube, duplicate average
Protocol: 20 mg of each surface-active composition for testing was dissolved in deionized water (4 mL) to give a 10 wt % solution, 2 mL was added to a 15 mL FALCON tube. Each falcon tube was secured in a holder before being vigorously shook for 30 seconds. The initial foam height and structure was noted. The foam height was then noted at 5 min, 10 min, 15 min, 30 min, 45 min, 1 hr and 2 hr after the initial measurement. The experiment was repeated in duplicate. Averaged results are depicted in table 5 and FIG. 11.

[5] = Lipophilic substances solubilization test, lemongrass oil (Example 71); format: physicochemical; details: 2 mL of 5 wt % aqueous solution, stepwise addition of 2.5 μL, duplicate
Protocol: After each addition, the sample was agitated with a vortex mixture for 60 s and left to stand for 5 min. If no heterogenous phase was observed visually, the oil was said to be fully soluble. If a heterogenous, immiscible biphasic or emulsion was visible, then the saturation limit for that surface-active component was said to have been exceeded. Each surface-active composition was tested in duplicate.

[6] = Aqueous solubility noted at preparation; format: physicochemical; details: water, room temperature
Protocol: Solid N-decyl xylosylamine (7.6 g) was suspended in 2-propanol (60 mL) and triethylamine (2 equiv.) then acetic anhydride (1.6 equiv.) was added slowly. Stirring continued at ambient temperature for 10 h. Water (50 mL) was added, and the mixture stirred for 5 min. Dichloromethane (50 mL) was added and the phases separated. The aqueous phase was extracted with additional DCM. The combined organic phase washed with saturated aqueous NH4Cl solution, then the aqueous phase extracted with additional DCM. The combined organic phases were dried over anhydrous magnesium sulfate, filtered, then concentrated under reduced pressure to give a yellow oil. The oil was purified by FCC eluting with MeOH (2-15%) in DCM (120 g normal phase silica cartridge with wet loading). Fractions containing the product were combined and evaporated to dryness to give the desired product (4.1 g, 49%) as a yellow gum. LC-MS (Method A), Rt=1.69 min, [M+H]+=332.2. The gum product can be dissolved in water to form solutions of 50 wt % or greater.
The process was carried out in essentially the same manner as in Example 11 a) step (ii) but using the solid product of Example 11 reaction c) step (i) and the crude product was instead purified by FCC eluting with MeOH (2-13%) in DCM. There were obtained 1.4 g of cream gum product. LC-MS (Method A), Rt=1.87 min, [M+H]^+=360.5.

[7] = Dynamic foam tests (Example 69); format: physicochemical; details: 5 mL of 0.5 wt % aqueous solution, 40 cm^3 air bubbled at 17 cm^3/min
Protocol: The intensity and approximate decay-rate for the foaming behavior of the surface-active compositions in dilute aqueous solution was determined by dosing 5 mL of 0.5 wt % aqueous solution of surface-active composition to a vertically-aligned 50 m plastic serological pipette (“Stripette”). Air (40 cm^3) was bubbled through the surface-active composition solution at a rate of 17 cm^3/min via a syringe pump and the foam height upon complete addition of air recorded. The foam height was also recorded again 5 min after complete addition of air, 10 min after complete addition of air, 15 m after complete addition of air, 30 min after complete addition of air, 1 hour after complete addition of air and finally 2 hours after complete addition of air.

[8] = Critical micellular concentration determination (Example 78); format: physicochemical; details: deionized water
Protocol: Stock solutions were prepared of known weight concentration (range spanning 0.005 wt %-5.000 wt %) of inventive surface-active compositions (by solution of the appropriate weight of example composition in deionized water). For reference, the surface tension of deionized water in the absence of a surface-active composition is 73 mN. […] The surface tensions of the solutions at the concentration of the CMC were also noted. Results are shown in table 10 and graphical results are depicted in FIG. 22.

Molecule | Average time (for 3 mL to pass out of the stripette by gravity) [1] [s] | Time inspected by which the emulsion first appeared dispersed [3] [h] | Volume of foam after given time ([4]; 0 min) [cm^3] | Volume of foam after given time ([4]; 5 min) [cm^3] | Volume of foam after given time ([4]; 15 min) [cm^3] | Volume of foam after given time ([4]; 30 min) [cm^3] | Volume of foam after given time ([4]; 1 h) [cm^3] | Volume of foam after given time ([4]; 2 h) [cm^3] | Maximum volume of lemongrass oil solubilized [5] [µL] | other results
Lauryl glucoside | 1.9 |  |  |  |  |  |  |  |  | 
CCCCCCCCCCO[C@@H]1O[C@H](CO)[C@@H](O)[C@H](O)[C@H]1O [Decyl glucoside, reference compound] |  | 24 | 12.0 | 12.0 | 11.8 | 11.5 | 11.5 | 11.0 | 2.5 | Maximum volume of preservative P12 solubilized [2]: 40 µL; Resulting zein concentration solubilized (Zein): 1129 µg/mL
CCCCCCCCCCCCCCN(C(C)=O)C1OC[C@@H](O)[C@H](O)[C@H]1O (stereo partly shown) [Example 12 composition, N-tetradecyl N-acetyl xylosylamine] |  | 1 |  |  |  |  |  |  |  | 
CCCCCCCCCCCCN(C(C)=O)C1OC[C@@H](O)[C@H](O)[C@H]1O (stereo partly shown) [Example 13 composition, N-dodecyl N-acetyl xylosylamine] |  | 1 |  |  |  |  |  |  | 5.0 | Aqueous solubility (in words) [6]: only sparingly soluble
CCCCCCCCCCCCN(C(C)=O)C1O[C@H](CO)[C@@H](O[C@@H]2O[C@H](CO)[C@@H](O)[C@H](O)[C@H]2O)[C@H](O)[C@H]1O (stereo partly shown) [Example 23 composition, N-dodecyl N-acetyl cellobiosylamine] |  |  | 3.5 | 3.5 | 3.5 | 3.0 | 2.8 | 2.5 |  | Volume of foam after given time ([7]; 0 min): 38.5 cm^3; Volume of foam after given time ([7]; 5 min): 4.0 cm^3; Volume of foam after given time ([7]; 15 min): 4.0 cm^3; Volume of foam after given time ([7]; 30 min): 4.0 cm^3; Volume of foam after given time ([7]; 1 h): 3.0 cm^3; Volume of foam after given time ([7]; 2 h): 3.0 cm^3; Solution Surface tension at CMC [8]: 45 mN; CMC ([8]; from surface tension at 0.005-5.000 wt %): 0.03 wt %
CCCCCCCCCCCCO[C@@H]1O[C@H](CO)[C@@H](O)[C@H](O)[C@H]1O [Dodecyl Glucoside, reference compound] | 4.0 | 12 |  |  |  |  |  |  |  | Volume of foam after given time ([7]; 0 min): 42.3 cm^3; Volume of foam after given time ([7]; 5 min): 42.3 cm^3; Volume of foam after given time ([7]; 15 min): 42.3 cm^3; Volume of foam after given time ([7]; 30 min): 42.3 cm^3; Volume of foam after given time ([7]; 1 h): 42.0 cm^3; Volume of foam after given time ([7]; 2 h): 42.0 cm^3
CCCCCCCCN(C(C)=O)C1OC[C@@H](O)[C@H](O)[C@H]1O (stereo partly shown) [Example 14 composition, N-octyl N-acetyl xylosylamine] | 10.0 | 0.083 |  |  |  |  |  |  | 5.0 | 
O=C[C@H](O)[C@@H](O)[C@H](O)CO [Xylose, reference compound] |  | <0.083 |  |  |  |  |  |  |  | 
Cocoamidopropyl betaine | 524.0 |  |  |  |  |  |  |  |  | 
CCCCCCCCCCCCOS(=O)(=O)[O-].[Na+] [Sodium dodecyl sulfate, reference compound] |  | 1 | 15.0 | 15.0 | 15.0 | 15.0 | 15.0 | 14.0 |  | 
